Consider 8 molecules from ChEMBL document CHEMBL2074437, “Expression and transport properties of the human ileal and renal sodium-dependent bile acid transporter” (Am J Physiol, 1998).

Assay type in all cases: functional, cell-based
Data set [1] has as its target T1, Ileal sodium/bile acid cotransporter (Homo sapiens, UniProt Q12908).
T1 sequence (Q12908 whole entry): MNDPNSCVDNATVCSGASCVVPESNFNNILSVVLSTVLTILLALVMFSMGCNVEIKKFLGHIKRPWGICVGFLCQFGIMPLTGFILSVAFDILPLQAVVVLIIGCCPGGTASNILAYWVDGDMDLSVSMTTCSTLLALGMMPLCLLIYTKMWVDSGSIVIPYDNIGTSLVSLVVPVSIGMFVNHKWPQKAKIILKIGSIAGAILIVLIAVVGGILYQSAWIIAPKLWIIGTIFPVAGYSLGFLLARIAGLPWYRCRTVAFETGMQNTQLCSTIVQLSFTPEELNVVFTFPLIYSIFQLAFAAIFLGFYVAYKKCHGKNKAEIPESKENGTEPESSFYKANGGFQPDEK
The experiment in a line: TP_TRANSPORTER: inhibition of Taurocholate uptake in ASBT-expressing COS cells.

Substrate in data set [2]: C[C@H](CCC(=O)NCC(=O)O)[C@H]1CC[C@H]2[C@@H]3[C@H](O)C[C@@H]4C[C@H](O)CC[C@]4(C)[C@H]3CC[C@]12C
Kind of data set: (§1) TP_TRANSPORTER: uptake in ASBT-expressing COS cells.

Substrate in data set [3]: C[C@H](CCC(=O)NCC(=O)O)[C@H]1CC[C@H]2[C@@H]3[C@@H](O)C[C@@H]4C[C@H](O)CC[C@]4(C)[C@H]3CC[C@]12C
Described as §1.

Substrate in data set [4]: C[C@H](CCC(=O)NCC(=O)O)[C@H]1CC[C@H]2[C@@H]3CC[C@@H]4C[C@H](O)CC[C@]4(C)[C@H]3C[C@H](O)[C@]12C
Described as §1.

As usually defined, the Ki is a dissociation constant, usually derived from enzyme kinetics or from competition with a known ligand. Lower therefore signals higher affinity. In data set [1], `C[C@H](CCC(=O)O)[C@H]1CC[C@H]2[C@@H]3[C@H](O)C[C@@H]4C[C@H](O)CC[C@]4(C)[C@H]3CC[C@]12C` [CHENODIOL] yielded a Ki of 3.3 µM. This counts as single-digit micromolar.
Regarding `C[C@H](CCC(=O)O)[C@H]1CC[C@H]2[C@@H]3CC[C@@H]4C[C@H](O)CC[C@]4(C)[C@H]3C[C@H](O)[C@]12C` [DEOXYCHOLIC ACID], the Ki in data set [1] and in data set [1] (cos) was 6.3 µM throughout.
Take `O=C1OC(c2ccc(O)c(S(=O)(=O)O)c2)(c2ccc(O)c(S(=O)(=O)O)c2)c2c(Br)c(Br)c(Br)c(Br)c21` [SULFOBROMOPHTHALEIN SODIUM]: the Ki in data set [1] stood at 144 µM.
Still for that read-out and setting: for `C[C@H](CCC(=O)NCCS(=O)(=O)O)[C@H]1CC[C@H]2[C@@H]3[C@H](O)C[C@@H]4C[C@H](O)CC[C@]4(C)[C@H]3CC[C@]12C` [TAUROCHENODEOXYCHOLATE] the value was 6.1 µM.
Same read-out and setting: for `C[C@H](CCC(=O)NCCS(=O)(=O)O)[C@H]1CC[C@H]2[C@@H]3CC[C@@H]4C[C@H](O)CC[C@]4(C)[C@H]3C[C@H](O)[C@]12C` [TAURODEOXYCHOLIC ACID] the value was 17.2 µM; for `C[C@H](CCC(=O)NCCS(=O)(=O)O)[C@H]1CC[C@H]2[C@@H]3[C@@H](O)C[C@@H]4C[C@H](O)CC[C@]4(C)[C@H]3CC[C@]12C` [TAURURSODIOL], 28 µM; for `C[C@H](CCC(=O)O)[C@H]1CC[C@H]2[C@@H]3[C@@H](O)C[C@@H]4C[C@H](O)CC[C@]4(C)[C@H]3CC[C@]12C` [URSODIOL], 75 µM.

B1: Ileal sodium/bile acid cotransporter (Homo sapiens) (protein)
chain: MNDPNSCVDNATVCSGASCVVPESNFNNILSVVLSTVLTILLALVMFSMGCNVEIKKFLGHIKRPWGICVGFLCQFGIMPLTGFILSVAFDILPLQAVVVLIIGCCPGGTASNILAYWVDGDMDLSVSMTTCSTLLALGMMPLCLLIYTKMWVDSGSIVIPYDNIGTSLVSLVVPVSIGMFVNHKWPQKAKIILKIGSIAGAILIVLIAVVGGILYQSAWIIAPKLWIIGTIFPVAGYSLGFLLARIAGLPWYRCRTVAFETGMQNTQLCSTIVQLSFTPEELNVVFTFPLIYSIFQLAFAAIFLGFYVAYKKCHGKNKAEIPESKENGTEPESSFYKANGGFQPDEK
The term Km denotes the concentration of substrate that gives half-maximal velocity. Regarding B1, the Km was determined as 5.7 µM in data set [2], 4.1 µM in data set [3] and 2 µM in data set [4].
